Assay results taken from PubChem BioAssay AID386.

Molecular target: GTP-binding protein Di-Ras1 (Homo sapiens) (UniProt O95057)
Test: ligand-induced DIRAS1 melting temperature shift – biophysical, recombinant human GTPase, DSF (AID 386)
Conditions: recombinant DIRAS1, DSF thermal shift, SYPRO orange; at 10 µM; protein 2 µM; buffer 10 mM HEPES; pH 7.5; NaCl 150 mM; stronger effect = higher value

Chain of GTP-binding protein Di-Ras1 (Homo sapiens) (O95057 whole entry, looked up): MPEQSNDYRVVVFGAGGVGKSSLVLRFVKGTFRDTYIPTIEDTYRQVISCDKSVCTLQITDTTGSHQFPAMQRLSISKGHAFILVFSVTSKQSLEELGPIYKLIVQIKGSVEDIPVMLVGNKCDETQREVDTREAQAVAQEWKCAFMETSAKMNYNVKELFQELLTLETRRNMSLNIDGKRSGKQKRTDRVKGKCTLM

| Tm shift | Structure (SMILES) |
| --- | --- |
| 3.3 Celsius | O=c1c(O)c(-c2ccc(O)c(O)c2)oc2cc(O)cc(O)c12 |
| 2.1 Celsius | NS(=O)(=O)c1ccc(Nc2nc(OCC3CCCCC3)c3[nH]cnc3n2)cc1 |
| 4.4 Celsius | COc1ccc(S(O)(O)N(CCO)c2ccccc2CN(C)C/C=C/c2ccc(Cl)cc2)cc1 |

| Structure (SMILES) | Tm shift |
| --- | --- |
| CN[C@@H]1C[C@H]2OC(C)([C@@H]1OC)n1c3ccccc3c3c4c(c5c6ccccc6n2c5c31)C(=O)NC4 | 2.6 Celsius |
